This note sets out measurements from US11702441B2, “Spirobicyclic analogues” (Janssen Pharmaceutica NV, priority 2017, dated 2023).

The experiment concerns the target T1, PRMT5-MEP50 enzyme (Homo sapiens, UniProt O14744).
T1 construct: One virus expresses full length human PRMT5 with Flag-tag at N-terminus; Flag (N); purchased Charles River (Argenta); host or cells: insect cells (Sf9), baculovirus co-infection
The experiment in a line: High throughput mass spectrometer assay of PRMT5-MEP50 enzyme activity (SAH formation). The experiment is classed as biochemical. As to conditions: averaged values; inhibition of SAH formation; 1 μM SAM, 0.3 μM H2A, 1.25 nM enzyme, 30° C. The source says: Reagents. PRMT5-MEP50 enzyme was purchased from Charles River (Argenta). The enzyme complex was produced in insect cells (Sf9) infected simultaneously with two baculoviruses. One virus expresses full length human PRMT5 with Flag-tag at N-terminus, the second virus expresses full length MEP50 with His6-TEV cleavage at N-terminus. The protein was affinity purified using anti-Flag (M2) beads eluted with 3×FLAG peptide, followed by His-Select eluted with 0.5M imidazole. Eluted protein was then dialysed against tris-buffered saline (TBS) (pH 8.0) containing 20% glycerol and 3 mM dithiothreitol (DTT).
Full-length untagged human recombinant histone H2A (residues 1-130, Genbank Accession #NM_021052, MW=14.1 kDa) expressed in E. coli was purchased from Reaction Biology Corporation, Cat #HMT-11-146. Reagents used for making reaction buffer or stopping reaction were purchased including Tris base (Sigma Cat #T-1503), NaCl (Sigma Cat #RGF-3270), MgCl2 (Sigma Cat #M0250), DTT (Invitrogen Cat #15508-013) and Formic Acid (Riedel deHaen, Cat #33015)
High Throughput Mass Spectrometer Assay PRMT5 catalyzes the sequential methylations of the terminal nitrogen atoms on the guanidine groups of arginine residues within proteins using co-substrate S-adenosyl-L-methionine (AdoMet, SAM), forming mono-methyl (MMA), symmetric-dimethyl arginine (sDMA) and S-adenosyl-L-homocysteine (AdoHcy, SAH). The enzyme activity was determined by following the product SAH formation using high throughput mass spectrometry (Agilent Rapidfire 300 System coupled to a Sciex 4000 series QTrap® triple-quad MS/MS). The reaction buffer was 20 mM Tris-HCl, pH 8.5, 50 mM NaCl. 5 mM MgCl2 and 1 mM DTT. The reaction activity was stopped using 1% formic acid (final concentration).
Inhibition Studies. The IC50 Studies were performed using eleven point dosing series made for each compound by serially diluted 1:2 in dimethyl sulfoxide (DMSO), with point 12 being a DMSO control. Compounds were first spotted to plates, and followed by addition of 2 μM SAM and 0.6 μM H2A (histone H2A) solution mixture. The same volume of enzyme solution was added to initiate the enzymatic reactions. The final concentrations of the reaction are at 1 μM SAM, 0.3 μM H2A and 1.25 nM enzyme. The reaction was incubated at 30° C. for 60 minutes (min) when 10 nM enzyme was used and for 120 min when 1.25 nM enzyme was used. Subsequently, the reaction was quenched by addition of formic acid to a final concentration of 1%. The inhibitions of SAH formation in the presence of compounds were calculated as a percentage of the control relative to the uninhibited reaction as a function of inhibitor concentration. The data were fit as follows: Y=Bottom+(Top−Bottom)/(1+10^((log IC50−X)*h))
where IC50 is the inhibitor concentration (same unit as X) at 50% inhibition and h is the Hill slope. Y is percent of inhibition, X is log of compound concentration. Bottom and Top are the plateaus in same units as Y.
The pIC50 values in the Table below are averaged values (Co. No. means compound number: n.d. means not determined)

A word on the IC50: it is the midpoint of a concentration-inhibition curve. Low values mean inhibition by little substance, high ones a need for much substance. As a reminder, the pIC50 is the negative decadic logarithm of the IC50, by convention in mol/L.

T1 sequence (O14744 whole entry): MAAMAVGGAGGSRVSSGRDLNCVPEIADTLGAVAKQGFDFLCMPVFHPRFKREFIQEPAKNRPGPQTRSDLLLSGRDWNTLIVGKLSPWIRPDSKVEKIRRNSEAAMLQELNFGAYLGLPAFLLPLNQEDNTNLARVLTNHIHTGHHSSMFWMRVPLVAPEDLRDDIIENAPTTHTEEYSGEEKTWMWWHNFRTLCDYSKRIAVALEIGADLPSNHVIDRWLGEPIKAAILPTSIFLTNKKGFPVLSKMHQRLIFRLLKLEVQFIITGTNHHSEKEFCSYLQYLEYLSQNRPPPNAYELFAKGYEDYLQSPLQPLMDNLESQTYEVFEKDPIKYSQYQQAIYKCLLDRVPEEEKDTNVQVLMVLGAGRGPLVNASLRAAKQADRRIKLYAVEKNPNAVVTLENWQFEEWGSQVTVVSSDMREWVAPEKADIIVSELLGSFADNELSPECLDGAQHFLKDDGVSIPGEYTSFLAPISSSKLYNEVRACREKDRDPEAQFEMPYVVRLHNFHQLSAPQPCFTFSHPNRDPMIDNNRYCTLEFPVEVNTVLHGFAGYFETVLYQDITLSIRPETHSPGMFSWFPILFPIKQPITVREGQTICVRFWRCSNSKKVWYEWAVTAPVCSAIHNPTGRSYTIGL
T1 sequence (Q9BQA1 whole entry partner): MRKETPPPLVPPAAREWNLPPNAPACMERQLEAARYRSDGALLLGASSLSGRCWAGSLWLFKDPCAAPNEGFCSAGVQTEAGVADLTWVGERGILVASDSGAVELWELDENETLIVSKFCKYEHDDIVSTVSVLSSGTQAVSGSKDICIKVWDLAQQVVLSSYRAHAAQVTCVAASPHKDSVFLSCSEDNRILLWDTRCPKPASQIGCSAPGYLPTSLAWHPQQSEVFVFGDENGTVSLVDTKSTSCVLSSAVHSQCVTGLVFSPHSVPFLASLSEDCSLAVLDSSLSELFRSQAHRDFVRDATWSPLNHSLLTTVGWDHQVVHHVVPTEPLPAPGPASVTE

`Nc1ncnc2c1ncn2[C@@H]1O[C@]2(C[C@@H](Cc3ccc4cc(Cl)cnc4c3)C2)[C@@H](O)[C@H]1O` [Compound 45] gave a concentration for half-maximal inhibition (IC50) of 5500 nM.
On the same count and under the same terms, in the case of `Nc1ncnc2c1ncn2[C@@H]1O[C@]2(C[C@@H](Oc3ccc4cc(Br)cnc4c3)C2)[C@@H](O)[C@H]1O` [Compound 4] it was 3020 nM; in that of `Nc1ncnc2c1ncn2[C@@H]1O[C@]2(C[C@@H](Oc3ccc4ccc(Cl)nc4c3)C2)[C@@H](O)[C@H]1O` [Compound 3], 8130 nM; in that of `Nc1ncnc2c1ccn2[C@@H]1C[C@]2(C[C@@H](COc3cccc(Cl)n3)C2)[C@@H](O)[C@H]1O` [Compound 31], 3470 nM.
`Nc1ncnc2c1ncn2[C@@H]1O[C@]2(C[C@H](Oc3ccc4cc(Cl)cnc4c3)C2)[C@@H](O)[C@H]1O` [Compound 9] gave an IC50 of 257 nM.
On to `Nc1ncnc2c1ccn2[C@@H]1C[C@]2(C[C@@H](Cc3cccnc3)C2)[C@@H](O)[C@H]1O` [Compound 29], for which it took 170 nM to reach half-maximal inhibition (IC50).
`Nc1ccc2ccc(O[C@H]3C[C@]4(C3)O[C@@H](n3cnc5c(N)ncnc53)[C@H](O)[C@@H]4O)cc2n1` [Compound 2] gave a half-maximal inhibitory concentration (IC50) of 30.9 nM. This IC50 is about 5.5-fold lower than that of the compound before.
Compound `Nc1ncnc2c1ccn2[C@@H]1C[C@]2(C[C@@H](Cc3ccccn3)C2)[C@@H](O)[C@H]1O` [Compound 27] showed an IC50 of 5620 nM.
`Nc1ncnc2c1ncn2[C@@H]1O[C@]2(C[C@@H](OCc3ccccc3)C2)[C@@H](O)[C@H]1O` [Compound 1]: 3020 nM corresponded to half-maximal inhibition (IC50).
Same read-out and setting: the result for `Nc1nc2cc(C[C@H]3C[C@@]4(C[C@@H](n5ccc6c(N)ncnc65)[C@H](O)[C@@H]4O)C3)ccc2s1` [Compound 19] reads 132 nM; that for `Nc1ccc2ccc(O[C@H]3C[C@@]4(C3)O[C@@H](n3cnc5c(N)ncnc53)[C@H](O)[C@@H]4O)cc2n1` [Compound 5], 9.33 nM; that for `Nc1ncnc2c1ccn2[C@@H]1C[C@]2(C[C@H](CO)C2)[C@@H](O)[C@H]1O` (single isomer, unassigned) [Compound 35], 933 nM.
The same measure, in the same setting: in the case of `Nc1ncnc2c1ccn2[C@@H]1C[C@]2(C[C@H](Oc3ccc4cccnc4c3)C2)[C@@H](O)[C@H]1O` [Compound 11] it was 91.2 nM.
The same measure, in the same setting: the result for `Nc1ncnc2c1ncn2[C@@H]1O[C@]2(C[C@@H](O)C2)[C@@H](O)[C@H]1O` [Compound 7] reads 5010 nM.
In turn, `Nc1ncnc2c1ccn2[C@@H]1C[C@]2(C[C@@H](Cc3ccc4cc(Cl)cnc4c3)C2)[C@@H](O)[C@H]1O` [Compound 15] had an IC50 of 1100 nM.
On the same count and under the same terms, in the case of `Nc1ncnc2c1ccn2[C@@H]1C[C@]2(C[C@H](Cc3cccnc3)C2)[C@@H](O)[C@H]1O` [Compound 28] it was 145 nM.
In the case of `Cl.Nc1ncnc2c1ccn2[C@@H]1CC2(CC(Cn3c(Cl)cccc3=O)C2)[C@@H](O)[C@H]1O` (mixture of isomers) [Compound 32], the pIC50 is 5.69.
In turn, `Nc1ncnc2c1ccn2[C@@H]1C[C@]2(C[C@H](Cc3ccccn3)C2)[C@@H](O)[C@H]1O` [Compound 26] gave a 50% inhibitory concentration (IC50) of 2450 nM. That is a single-digit micromolar value.
In the case of `Nc1ncnc2c1ccn2[C@@H]1C[C@]2(C[C@@H](Cc3ccc4ncsc4c3)C2)[C@@H](O)[C@H]1O` [Compound 21], the IC50 was 145 nM. Against the preceding compound, the IC50 is about 17-fold lower.
In the case of `Nc1ncnc2c1ncn2[C@@H]1O[C@]2(C[C@H](Oc3ccc4cc(Br)cnc4c3)C2)[C@@H](O)[C@H]1O` [Compound 6], the concentration for half-maximal inhibition (IC50) was 120 nM.
The same measure, in the same setting: in the case of `Nc1ncnc2c1ccn2[C@@H]1C[C@]2(C[C@H](Cc3ccc4scnc4c3)C2)[C@@H](O)[C@H]1O` [Compound 16] it was 490 nM; in that of `Nc1ncnc2c1ncn2[C@@H]1O[C@]2(C[C@H](O)C2)[C@@H](O)[C@H]1O` [Compound 8], 3550 nM; in that of `Nc1nc2cc(C[C@H]3C[C@]4(C[C@@H](n5ccc6c(N)ncnc65)[C@H](O)[C@@H]4O)C3)ccc2cc1Br` [Compound 33], 245 nM.
`Nc1nc2ccc(C[C@H]3C[C@@]4(C[C@@H](n5ccc6c(N)ncnc65)[C@H](O)[C@@H]4O)C3)cc2s1` [Compound 23] gave an IC50 of 295 nM.
The same measure, in the same setting: in the case of `Nc1ncnc2c1ccn2[C@@H]1C[C@]2(C[C@@H](Cc3ccn4ccnc4c3)C2)[C@@H](O)[C@H]1O` [Compound 25] it was 10.2 nM; in that of `Nc1ncnc2c1ccn2[C@@H]1C[C@]2(C[C@@H](CO)C2)[C@@H](O)[C@H]1O` (single isomer, unassigned) [Compound 36], 1410 nM.
The same measure, in the same setting: in the case of `Nc1ncnc2c1ccn2[C@@H]1C[C@]2(C[C@H](COc3cccc(Cl)n3)C2)[C@@H](O)[C@H]1O` [Compound 30] it was 1620 nM.
Still for that read-out and setting: the result for `Nc1nc2ccc(C[C@H]3C[C@]4(C[C@@H](n5ccc6c(N)ncnc65)[C@H](O)[C@@H]4O)C3)cc2s1` [Compound 22] reads 1580 nM.
With `Nc1ncnc2c1ccn2[C@@H]1C[C@]2(C[C@@H](Oc3ccc4cc(Cl)cnc4c3)C2)[C@@H](O)[C@H]1O` [Compound 13], the IC50 was 646 nM.
The same measure, in the same setting: the result for `Nc1ncnc2c1ccn2[C@@H]1C[C@]2(C[C@H](Oc3ccc4cc(Cl)cnc4c3)C2)[C@@H](O)[C@H]1O` [Compound 12] reads 2400 nM; that for `Nc1ncnc2c1ncn2[C@@H]1O[C@]2(C[C@H](Cc3ccc4cc(Cl)cnc4c3)C2)[C@@H](O)[C@H]1O` [Compound 44], 4570 nM; that for `Nc1nc2cc(C[C@H]3C[C@]4(C[C@@H](n5ccc6c(N)ncnc65)[C@H](O)[C@@H]4O)C3)ccc2s1` [Compound 18], 35.5 nM.
Consider `Nc1ncnc2c1ccn2[C@@H]1C[C@]2(C[C@H](Cc3ccn4ccnc4c3)C2)[C@@H](O)[C@H]1O` [Compound 24], for which it took 9.12 nM to reach half-maximal inhibition (IC50).
Same read-out and setting: in the case of `Nc1ncnc2c1ccn2[C@@H]1C[C@]2(C[C@H](Cc3ccc4cc(Cl)cnc4c3)C2)[C@@H](O)[C@H]1O` [Compound 14] it was 2000 nM.
Same read-out and setting: the result for `Nc1ncnc2c1ccn2[C@@H]1C[C@]2(C[C@H](Cc3ccc4ncsc4c3)C2)[C@@H](O)[C@H]1O` [Compound 20] reads 490 nM; that for `Nc1ncnc2c1ccn2[C@@H]1C[C@]2(C[C@@H](Cc3ccc4scnc4c3)C2)[C@@H](O)[C@H]1O` [Compound 17], 389 nM.
